Data on 17 compounds can be found in US8710198B2, “Caprazene as a novel compound and derivatives thereof, and caprazol as a novel compound and derivatives thereof” (Meiji Seika Pharma Co., Ltd., priority 2003, dated 2014).

Format in all cases: cell-based
One assay has as its system Micrococcus luteus FDA16. The assay is described as follows: Minimum growth inhibitory concentration on agar culture medium by serial dilution method (Japanese Society of Chemotherapy). As to the method:
(§1) Minimum growth inhibitory concentrations (mcg/ml) of caprazene-1′″-amide derivatives of the formula (II) against some of microorganisms were measured on an agar culture medium by a serial dilution method according to the standard method as provided by Japanese Society of Chemotherapy. For the cultivation of Mycobacterium smegmatis (one of […]), however, there was used an agar culture medium with the addition of 1% glycerine (the same applies to in the following tests).
(§2) Minimum growth inhibitory concentrations (mcg/ml) of some of the caprazene-1′″-ester derivative of the formula (III) against some of microorganisms were measured on an agar culture medium by a serial dilution method according to the standard method as provided by Japanese Society of Chemotherapy.
(§3) Minimum growth inhibitory concentrations (mcg/ml) of some of the caprazol-1′″-amide derivative of the formula (V) against a variety of microorganisms were measured on an agar medium by a serial dilution method according to the standard method as provided by Japanese Society of Chemotherapy.
(§4) Minimum growth inhibitory concentrations (mcg/ml) of some of the caprazol-1′″-amide-3′″-ester derivative of the formula (VI) against a variety of microorganisms were measured on an agar medium by a serial dilution method according to the standard method as provided by Japanese Society of Chemotherapy.
(§5) Minimum growth inhibitory concentrations (mcg/ml) of some of the caprazol-3′″-ester derivative or caprazol-1′″-ester-3′″-ester derivative of the formula (VII) against a variety of microorganisms were measured on an agar medium by a serial dilution method according to the standard method as provided by Japanese Society of Chemotherapy.
(§6) Minimum growth inhibitory concentrations (mcg/ml) of some of the derivative of the formula (VIII) against a variety of microorganisms were measured on an agar medium by a serial dilution method according to the standard method as provided by Japanese Society of Chemotherapy.

The subject of assay [1] is Staphylococcus aureus FDA209P. The assay is described as above. As to the method:
as §1, §2, §3, §4, §5, §6

Assay [2] concerns Mycobacterium smegmatis ATCC607. In words: Minimum growth inhibitory concentration on agar culture medium with 1% glycerine by serial dilution method. The note with it: agar culture medium with the addition of 1% glycerine. As to the method:
as §1, §2, §3, §4, §5

In the case of `CCCCCCCCCCCCCNC(=O)C1=CCN(C)C(C(OC2OC(CNC(=O)OC(C)(C)C)C(O)C2O)C2OC(n3ccc(=O)[nH]c3=O)C(O)C2O)C(=O)N1C` (stereo not drawn) [Compound II-H-N-Boc], the “Minimum growth inhibitory concentration (mcg/ml) against bacteria Micrococcus luteus FDA16” value in the assay with Micrococcus luteus FDA16 worked out at 12.5 µg/mL. In addition, the “Minimum growth inhibitory concentration (mcg/ml) against bacteria Staphylococcus aureus FDA209P” value in assay [1] was found to be 25 µg/mL. Further, the “Minimum growth inhibitory concentration (mcg/ml) against bacteria Mycobacterium smegmatis ATCC607” value in assay [2] came to 25 µg/mL.
As for `CCCCCCCCCCCC(=O)OC1CN(C)C(C(OC2OC(CN)C(O)C2O)C2OC(n3ccc(=O)[nH]c3=O)C(O)C2O)C(=O)N(C)C1C(=O)NC1CCCCCCCCCCC1` (stereo not drawn) [Compound VI-Q], the “Minimum growth inhibitory concentration (mcg/ml) against bacteria Micrococcus luteus FDA16” value in the assay on Micrococcus luteus FDA16 came out at 3.13 µg/mL. For the same compound, the “Minimum growth inhibitory concentration (mcg/ml) against bacteria Staphylococcus aureus FDA209P” value in assay [1] stood at 12.5 µg/mL. Further, the “Minimum growth inhibitory concentration (mcg/ml) against bacteria Mycobacterium smegmatis ATCC607” value in assay [2] was determined as 6.25 µg/mL.
`CCCCCCCCCCCCCCCCCCCNC(=O)C1=CCN(C)C(C(OC2OC(CN)C(O)C2O)C2OC(n3ccc(=O)[nH]c3=O)C(O)C2O)C(=O)N1C` (stereo not drawn) [Compound II-N]: in the assay on Micrococcus luteus FDA16, the “Minimum growth inhibitory concentration (mcg/ml) against bacteria Micrococcus luteus FDA16” value is 0.78 µg/mL. Also, the “Minimum growth inhibitory concentration (mcg/ml) against bacteria Staphylococcus aureus FDA209P” value in assay [1] was found to be 6.25 µg/mL. For the same compound, the “Minimum growth inhibitory concentration (mcg/ml) against bacteria Mycobacterium smegmatis ATCC607” value in assay [2] is 50 µg/mL.
Taken in the same sequence, the figures for `CCCCCCCCCCCNC(=O)C1=CCN(C)C(C(OC2OC(CN)C(O)C2O)C2OC(n3ccc(=O)[nH]c3=O)C(O)C2O)C(=O)N1C` (stereo not drawn) [Compound II-F] were 0.39 µg/mL, 1.56 µg/mL and 0.39 µg/mL.
On to `CCCCCCCCCCCC(=O)OC1CN(C)C(C(OC2OC(CN)C(O)C2O)C2OC(n3ccc(=O)[nH]c3=O)C(O)C2O)C(=O)N(C)C1C(=O)OC` (stereo not drawn) [Compound VII-G, caprazol-1′″-methyl-ester-3′″-dodecanoyl-ester Derivative], for which, in the assay on Micrococcus luteus FDA16, the “Minimum growth inhibitory concentration (mcg/ml) against bacteria Micrococcus luteus FDA16” value was over 100 µg/mL. Besides, in assay [1], the “Minimum growth inhibitory concentration (mcg/ml) against bacteria Staphylococcus aureus FDA209P” value was over 100 µg/mL. The “Minimum growth inhibitory concentration (mcg/ml) against bacteria Mycobacterium smegmatis ATCC607” value in assay [2] was 50 µg/mL.
Regarding `CCCCCCCCCNC(=O)C1=CCN(C)C(C(OC2OC(CN)C(O)C2O)C2OC(n3ccc(=O)[nH]c3=O)C(O)C2O)C(=O)N1C` (stereo not drawn) [Compound II-D], the “Minimum growth inhibitory concentration (mcg/ml) against bacteria Micrococcus luteus FDA16” value with Micrococcus luteus FDA16 was 0.39 µg/mL. Moreover, in assay [1], the “Minimum growth inhibitory concentration (mcg/ml) against bacteria Staphylococcus aureus FDA209P” value worked out at 6.25 µg/mL. In addition, the “Minimum growth inhibitory concentration (mcg/ml) against bacteria Mycobacterium smegmatis ATCC607” value in assay [2] stood at 3.13 µg/mL.
For `CCCCCCCCCCCCCCNC(=O)C1=CCN(C)C(C(OC2OC(CN)C(O)C2O)C2OC(n3ccc(=O)[nH]c3=O)C(O)C2O)C(=O)N1C` (stereo not drawn) [Compound II-I], in the assay with Micrococcus luteus FDA16, the “Minimum growth inhibitory concentration (mcg/ml) against bacteria Micrococcus luteus FDA16” value was 0.78 µg/mL. Further, the “Minimum growth inhibitory concentration (mcg/ml) against bacteria Staphylococcus aureus FDA209P” value in assay [1] worked out at 3.13 µg/mL. Also, in assay [2], the “Minimum growth inhibitory concentration (mcg/ml) against bacteria Mycobacterium smegmatis ATCC607” value is 0.78 µg/mL.
`CCCCCCCCNC(=O)C1=CCN(C)C(C(OC2OC(CN)C(O)C2O)C2OC(n3ccc(=O)[nH]c3=O)C(O)C2O)C(=O)N1C` (stereo not drawn) [Compound II-C]: the “Minimum growth inhibitory concentration (mcg/ml) against bacteria Micrococcus luteus FDA16” value in the assay with Micrococcus luteus FDA16 turned out to be 0.78 µg/mL. For the same compound, in assay [1], the “Minimum growth inhibitory concentration (mcg/ml) against bacteria Staphylococcus aureus FDA209P” value worked out at 6.25 µg/mL. Moreover, the “Minimum growth inhibitory concentration (mcg/ml) against bacteria Mycobacterium smegmatis ATCC607” value in assay [2] is 12.5 µg/mL.
Take `CCCCCCCCCCOC(=O)C1=CCN(C)C(C(OC2OC(CN)C(O)C2O)C2OC(n3ccc(=O)[nH]c3=O)C(O)C2O)C(=O)N1C` (stereo not drawn) [Compound III-AA]: the “Minimum growth inhibitory concentration (mcg/ml) against bacteria Micrococcus luteus FDA16” value in the assay on Micrococcus luteus FDA16 was determined as 1.56 µg/mL. Also, the “Minimum growth inhibitory concentration (mcg/ml) against bacteria Staphylococcus aureus FDA209P” value in assay [1] worked out at 12.5 µg/mL. Besides, the “Minimum growth inhibitory concentration (mcg/ml) against bacteria Mycobacterium smegmatis ATCC607” value in assay [2] was 12.5 µg/mL.
Take `CCCCCCOc1ccc(NC(=O)C2=CCN(C)C(C(OC3OC(CN)C(O)C3O)C3OC(n4ccc(=O)[nH]c4=O)C(O)C3O)C(=O)N2C)cc1` (stereo not drawn) [Compound II-20]: in the assay with Micrococcus luteus FDA16, the “Minimum growth inhibitory concentration (mcg/ml) against bacteria Micrococcus luteus FDA16” value amounted to 0.39 µg/mL. In addition, the “Minimum growth inhibitory concentration (mcg/ml) against bacteria Staphylococcus aureus FDA209P” value in assay [1] was found to be 6.25 µg/mL. The “Minimum growth inhibitory concentration (mcg/ml) against bacteria Mycobacterium smegmatis ATCC607” value in assay [2] is 1.56 µg/mL.
Regarding `CCCCCCCCCC=CCOC(=O)C1=CCN(C)C(C(OC2OC(CN)C(O)C2O)C2OC(n3ccc(=O)[nH]c3=O)C(O)C2O)C(=O)N1C` (stereo not drawn) [Compound III-EE], the “Minimum growth inhibitory concentration (mcg/ml) against bacteria Micrococcus luteus FDA16” value with Micrococcus luteus FDA16 was found to be 1.56 µg/mL. Moreover, the “Minimum growth inhibitory concentration (mcg/ml) against bacteria Staphylococcus aureus FDA209P” value in assay [1] came to 6.25 µg/mL. For the same compound, in assay [2], the “Minimum growth inhibitory concentration (mcg/ml) against bacteria Mycobacterium smegmatis ATCC607” value turned out to be 12.5 µg/mL.
For `CCCCCCCCCCCCCCCCCCNC(=O)C1=CCN(C)C(C(OC2OC(CN)C(O)C2O)C2OC(n3ccc(=O)[nH]c3=O)C(O)C2O)C(=O)N1C` (stereo not drawn) [Compound II-M], the “Minimum growth inhibitory concentration (mcg/ml) against bacteria Micrococcus luteus FDA16” value in the assay with Micrococcus luteus FDA16 is 0.78 µg/mL. Besides, the “Minimum growth inhibitory concentration (mcg/ml) against bacteria Staphylococcus aureus FDA209P” value in assay [1] is 6.25 µg/mL. In addition, the “Minimum growth inhibitory concentration (mcg/ml) against bacteria Mycobacterium smegmatis ATCC607” value in assay [2] was determined as 3.13 µg/mL.
As for `CCCCCCc1ccc(NC(=O)C2=CCN(C)C(C(OC3OC(CN)C(O)C3O)C3OC(n4ccc(=O)[nH]c4=O)C(O)C3O)C(=O)N2C)cc1` (stereo not drawn) [Compound II-6], the “Minimum growth inhibitory concentration (mcg/ml) against bacteria Micrococcus luteus FDA16” value with Micrococcus luteus FDA16 stood at 0.39 µg/mL. In assay [1], the “Minimum growth inhibitory concentration (mcg/ml) against bacteria Staphylococcus aureus FDA209P” value amounted to 1.56 µg/mL. Moreover, the “Minimum growth inhibitory concentration (mcg/ml) against bacteria Mycobacterium smegmatis ATCC607” value in assay [2] came to 0.78 µg/mL.
On to `CCCCCCCCCCCCCCc1ccc(NC(=O)C2=CCN(C)C(C(OC3OC(CN)C(O)C3O)C3OC(n4ccc(=O)[nH]c4=O)C(O)C3O)C(=O)N2C)cc1` (stereo not drawn) [Compound II-14], for which the “Minimum growth inhibitory concentration (mcg/ml) against bacteria Micrococcus luteus FDA16” value with Micrococcus luteus FDA16 is 3.13 µg/mL. In addition, the “Minimum growth inhibitory concentration (mcg/ml) against bacteria Staphylococcus aureus FDA209P” value in assay [1] turned out to be 6.25 µg/mL. In assay [2], the “Minimum growth inhibitory concentration (mcg/ml) against bacteria Mycobacterium smegmatis ATCC607” value amounted to 25 µg/mL.
Taken in the same sequence, the figures for `CCCCCCCCCCNC(=O)C1=CCN(C)C(C(OC2OC(CN)C(O)C2O)C2OC(n3ccc(=O)[nH]c3=O)C(O)C2O)C(=O)N1C` (stereo not drawn) [Compound II-E] were 0.39 µg/mL, 25 µg/mL and 0.78 µg/mL.
The corresponding values for `CN1C(=O)C(C(OC2OC(CN)C(O)C2O)C2OC(n3ccc(=O)[nH]c3=O)C(O)C2O)N(C)CC=C1C(=O)NC1CCCCCCCCCCC1` (stereo not drawn) [Compound II-Q] are 0.20 µg/mL, 100 µg/mL and 3.13 µg/mL.
`CCCCCCCCCCCCCc1ccc(NC(=O)C2=CCN(C)C(C(OC3OC(CN)C(O)C3O)C3OC(n4ccc(=O)[nH]c4=O)C(O)C3O)C(=O)N2C)cc1` (stereo not drawn) [Compound II-13]: the “Minimum growth inhibitory concentration (mcg/ml) against bacteria Micrococcus luteus FDA16” value with Micrococcus luteus FDA16 came out at 1.56 µg/mL. The “Minimum growth inhibitory concentration (mcg/ml) against bacteria Staphylococcus aureus FDA209P” value in assay [1] was found to be 3.13 µg/mL. Further, the “Minimum growth inhibitory concentration (mcg/ml) against bacteria Mycobacterium smegmatis ATCC607” value in assay [2] was 12.5 µg/mL.
